The text below walks through data of PubChem BioAssay AID270 (DTP/NCI, 2004).

Molecules are shown by their SMILES. Where “and” joins values, the source holds several entries; their conditions need not be identical. Equal entries are not always repeated. Inconclusive results are not listed.

The test system of the test is BDF1 mice, s.c. Lewis lung carcinoma, T/C %. Kind of test: NCI In Vivo Anticancer Drug Screen. Data for tumor model Lewis Lung Carcinoma (subcutaneous) in B6D2F1 (BDF1) mice. The method, boiled down:
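Tumor-bearing mice were treated with test compound, and either survival or tumor size was recorded. Values are the treated-group measurement divided by that of the vehicle-treated control group.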

With `Cc1c(N)nc([C@H](CC(N)=O)NC[C@H](N)C(N)=O)nc1C(=O)N[C@H](C(=O)N[C@H](C)[C@@H](O)[C@H](C)C(=O)N[C@H](C(=O)NCCc1nc(-c2nc(C(=O)NCCC[S+](C)C)cs2)cs1)[C@@H](C)O)C(OC1OC(CO)C(O)C(O)C1OC1OC(CO)C(O)C(OC(N)=O)C1O)c1cnc[nH]1` (some centres not stated), the T/C reads like this: (endpoint: mean survival time, dose: 4.0 mg/kg/injection, schedule: Q01DX009 (ip), vehicle: saline, higher = longer survival) 111 % of control; (endpoint: mean survival time, dose: 8.0 mg/kg/injection, schedule: Q01DX009 (ip), vehicle: saline, higher = longer survival) 102 % of control; (endpoint: mean survival time, dose: 12.0 mg/kg/injection, schedule: Q01DX009 (ip), vehicle: saline, higher = longer survival) 107 % of control; (endpoint: median survival time, dose: 1.0 mg/kg/injection, schedule: Q01DX009 (ip), vehicle: water, higher = longer survival) 90 % of control; (endpoint: median survival time, dose: 1.7 mg/kg/injection, schedule: Q01DX009 (ip), vehicle: water, higher = longer survival) 94 % of control; (endpoint: median survival time, dose: 2.0 mg/kg/injection, schedule: Q01DX009 (ip), vehicle: saline, higher = longer survival) 107 % of control. Further, the T/C was 112 % of control (endpoint: median survival time, dose: 2.0 mg/kg/injection, schedule: Q01DX009 (ip), vehicle: water, higher = longer survival); 94 % of control (endpoint: median survival time, dose: 2.9 mg/kg/injection, schedule: Q01DX009 (ip), vehicle: water, higher = longer survival); 90 % of control and 92 % of control (endpoint: median survival time, dose: 3.12 mg/kg/injection, schedule: Q04DX003 (sc), vehicle: saline, higher = longer survival); 94 % of control and 118 % of control (endpoint: median survival time, dose: 4.0 mg/kg/injection, schedule: Q01DX009 (ip), vehicle: water, higher = longer survival); 96 % of control and 110 % of control (endpoint: median survival time, dose: 4.0 mg/kg/injection, schedule: Q04DX003 (ip), vehicle: saline, higher = longer survival); 118 % of control (endpoint: median survival time, dose: 4.8 mg/kg/injection, schedule: Q01DX009 (ip), vehicle: water, higher = longer survival). In addition, the T/C is, setting by setting: (endpoint: median survival time, dose: 6.25 mg/kg/injection, schedule: Q04DX003 (sc), vehicle: saline, higher = longer survival) 96 % of control; (endpoint: median survival time, dose: 8.0 mg/kg/injection, schedule: Q01DX009 (ip), vehicle: water, higher = longer survival) 102 % of control and 112 % of control; (endpoint: median survival time, dose: 8.0 mg/kg/injection, schedule: Q04DX003 (ip), vehicle: saline, higher = longer survival) 96 % of control and 114 % of control; (endpoint: median survival time, dose: 12.0 mg/kg/injection, schedule: Q01DX009 (ip), vehicle: saline, higher = longer survival) 100 % of control; (endpoint: median survival time, dose: 12.5 mg/kg/injection, schedule: Q04DX003 (sc), vehicle: saline, higher = longer survival) 102 % of control and 108 % of control; (endpoint: median survival time, dose: 16.0 mg/kg/injection, schedule: Q04DX003 (ip), vehicle: saline, higher = longer survival) 84 % of control and 112 % of control. Further, the T/C (endpoint: median survival time, dose: 22.2 mg/kg/injection, schedule: Q01DX009 (ip), vehicle: water, higher = longer survival) is 82 % of control; the T/C (endpoint: median survival time, dose: 25.0 mg/kg/injection, schedule: Q04DX003 (sc), vehicle: saline, higher = longer survival) is 98 % of control; the T/C (endpoint: median survival time, dose: 32.0 mg/kg/injection, schedule: Q04DX003 (ip), vehicle: saline, higher = longer survival) was 50 % of control and 108 % of control; the T/C (endpoint: median survival time, dose: 50.0 mg/kg/injection, schedule: Q04DX003 (sc), vehicle: saline, higher = longer survival) was 117 % of control and 118 % of control; the T/C (endpoint: median survival time, dose: 64.0 mg/kg/injection, schedule: Q04DX003 (ip), vehicle: saline, higher = longer survival) was 37 % of control and 97 % of control; the T/C (endpoint: median survival time, dose: 100.0 mg/kg/injection, schedule: Q04DX003 (sc), vehicle: saline, higher = longer survival) was 116 % of control and 124 % of control. Further, the T/C is, setting by setting: (endpoint: median tumor weight (est.), dose: 2.0 mg/kg/injection, schedule: Q01DX009 (ip), vehicle: saline, higher = larger tumour) 71 % of control; (endpoint: median tumor weight (est.), dose: 2.0 mg/kg/injection, schedule: Q01DX009 (ip), vehicle: water, higher = larger tumour) 34 % of control; (endpoint: median tumor weight (est.), dose: 4.0 mg/kg/injection, schedule: Q01DX009 (ip), vehicle: saline, higher = larger tumour) 77 % of control; (endpoint: median tumor weight (est.), dose: 4.0 mg/kg/injection, schedule: Q01DX009 (ip), vehicle: water, higher = larger tumour) 24 % of control; (endpoint: median tumor weight (est.), dose: 8.0 mg/kg/injection, schedule: Q01DX009 (ip), vehicle: saline, higher = larger tumour) 34 % of control; (endpoint: median tumor weight (est.), dose: 8.0 mg/kg/injection, schedule: Q01DX009 (ip), vehicle: water, higher = larger tumour) 8 % of control. For the same compound, the T/C (endpoint: median tumor weight (est.), dose: 16.0 mg/kg/injection, schedule: Q01DX009 (ip), vehicle: saline, higher = larger tumour) was 26 % of control.
For `N/C(CCSc1ccccc1N=Cc1ccccc1O)=N/O`, the T/C (endpoint: median survival time, dose: 3.13 mg/kg/injection, schedule: Q01DX009 (ip), vehicle: olive oil, sesame oil, peanut oil, higher = longer survival) is 87 % of control.
As to `O=NN(CCCl)C(=O)NC1CC2CCC1C2` (configuration not stated), the T/C runs as follows: (endpoint: median survival time, dose: 10.0 mg/kg/injection, schedule: Q01DX001 (ip), vehicle: Klucel (hydroxypropylcellulose) (HPC), higher = longer survival) 102 % of control and 108 % of control; (endpoint: median survival time, dose: 20.0 mg/kg/injection, schedule: Q01DX001 (ip), vehicle: Klucel (hydroxypropylcellulose) (HPC), higher = longer survival) 99 % of control and 102 % of control; (endpoint: median survival time, dose: 40.0 mg/kg/injection, schedule: Q01DX001 (ip), vehicle: Klucel (hydroxypropylcellulose) (HPC), higher = longer survival) 106 % of control; (endpoint: median survival time, dose: 80.0 mg/kg/injection, schedule: Q01DX001 (ip), vehicle: Klucel (hydroxypropylcellulose) (HPC), higher = longer survival) 260 % of control; (endpoint: median survival time, dose: 160.0 mg/kg/injection, schedule: Q01DX001 (ip), vehicle: Klucel (hydroxypropylcellulose) (HPC), higher = longer survival) 117 % of control.
`COc1cc2ccc3c4cc5c(cc4c[n+](C)c3c2cc1OC)OCO5`: the T/C is, setting by setting: (endpoint: median survival time, dose: 1.25 mg/kg/injection, schedule: Q01DX009 (ip), vehicle: Klucel (hydroxypropylcellulose) (HPC), higher = longer survival) 108 % of control; (endpoint: median survival time, dose: 2.5 mg/kg/injection, schedule: Q01DX009 (ip), vehicle: Klucel (hydroxypropylcellulose) (HPC), higher = longer survival) 92 % of control; (endpoint: median survival time, dose: 5.0 mg/kg/injection, schedule: Q01DX009 (ip), vehicle: Klucel (hydroxypropylcellulose) (HPC), higher = longer survival) 102 % of control; (endpoint: median survival time, dose: 10.0 mg/kg/injection, schedule: Q01DX009 (ip), vehicle: Klucel (hydroxypropylcellulose) (HPC), higher = longer survival) 99 % of control.
As to `CC(C)(C)C1CCC(NC(=O)N(CCCl)N=O)CC1` (configuration not stated), the T/C is, setting by setting: (endpoint: median survival time, dose: 140.0 mg/kg/injection, schedule: Q01DX001 (ip), vehicle: gum acacia, higher = longer survival) 118 % of control; (endpoint: median survival time, dose: 315.0 mg/kg/injection, schedule: Q01DX001 (ip), vehicle: gum acacia, higher = longer survival) 121 % of control.
Turning to `Nc1nc2[nH]c(=O)cnc2c(=O)[nH]1`, the T/C is 97 % of control (endpoint: median survival time, dose: 12.5 mg/kg/injection, schedule: Q01DX009 (ip), vehicle: saline with Tween-80, higher = longer survival); 99 % of control (endpoint: median survival time, dose: 50.0 mg/kg/injection, schedule: Q01DX009 (ip), vehicle: saline with Tween-80, higher = longer survival); 104 % of control (endpoint: median survival time, dose: 100.0 mg/kg/injection, schedule: Q01DX009 (ip), vehicle: saline, higher = longer survival); 104 % of control (endpoint: median survival time, dose: 200.0 mg/kg/injection, schedule: Q01DX009 (ip), vehicle: saline, higher = longer survival); 110 % of control (endpoint: median survival time, dose: 400.0 mg/kg/injection, schedule: Q01DX009 (ip), vehicle: saline, higher = longer survival).
Take `NC(=O)c1csc(C2OC(CO)C(O)C2O)n1` (configuration not stated): the T/C runs as follows: (endpoint: median survival time, dose: 18.75 mg/kg/injection, schedule: Q01DX009 (ip), vehicle: water, higher = longer survival) 190 % of control and 235 % of control; (endpoint: median survival time, dose: 37.5 mg/kg/injection, schedule: Q01DX009 (ip), vehicle: water, higher = longer survival) 190 % of control and 235 % of control; (endpoint: median survival time, dose: 75.0 mg/kg/injection, schedule: Q01DX009 (ip), vehicle: water, higher = longer survival) 190 % of control and 235 % of control; (endpoint: median survival time, dose: 150.0 mg/kg/injection, schedule: Q01DX009 (ip), vehicle: water, higher = longer survival) 190 % of control and 235 % of control; (endpoint: median survival time, dose: 300.0 mg/kg/injection, schedule: Q01DX009 (ip), vehicle: water, higher = longer survival) 190 % of control and 235 % of control; (endpoint: median survival time, dose: 600.0 mg/kg/injection, schedule: Q01DX009 (ip), vehicle: water, higher = longer survival) 190 % of control and 235 % of control.
For `CC(/C=N/N=C(N)N)=N\N=C(N)N`, the T/C was 119 % of control (endpoint: mean tumor weight, dose: 15.0 mg/kg/injection, schedule: Q01DX011 (ip), vehicle: saline, higher = larger tumour); 88 % of control (endpoint: mean tumor weight, dose: 30.0 mg/kg/injection, schedule: Q01DX011 (ip), vehicle: saline, higher = larger tumour); 46 % of control (endpoint: mean tumor weight, dose: 60.0 mg/kg/injection, schedule: Q01DX011 (ip), vehicle: saline, higher = larger tumour).
`CCN(CC)CCN1C(=O)c2cccc3cccc(c23)C1=O`: the T/C (endpoint: mean tumor weight, dose: 48.0 mg/kg/injection, schedule: Q01DX011 (ip), vehicle: saline, higher = larger tumour) was 111 % of control; the T/C (endpoint: mean tumor weight, dose: 73.0 mg/kg/injection, schedule: Q01DX011 (ip), vehicle: saline, higher = larger tumour) was 87 % of control; the T/C (endpoint: mean tumor weight, dose: 110.0 mg/kg/injection, schedule: Q01DX011 (ip), vehicle: saline, higher = larger tumour) is 69 % of control.
Consider `C1CCNCC1`, for which the T/C was 87 % of control (endpoint: mean tumor weight, dose: 6.25 mg/kg/injection, schedule: Q01DX011 (ip), vehicle: saline, higher = larger tumour); 87 % of control (endpoint: mean tumor weight, dose: 12.5 mg/kg/injection, schedule: Q01DX011 (ip), vehicle: saline, higher = larger tumour); 94 % of control (endpoint: mean tumor weight, dose: 25.0 mg/kg/injection, schedule: Q01DX011 (ip), vehicle: saline, higher = larger tumour); 73 % of control and 95 % of control (endpoint: mean tumor weight, dose: 50.0 mg/kg/injection, schedule: Q01DX011 (ip), vehicle: saline, higher = larger tumour); 83 % of control (endpoint: mean tumor weight, dose: 100.0 mg/kg/injection, schedule: Q01DX011 (ip), vehicle: saline, higher = larger tumour).
For `Nc1ccc(O)cc1`, the T/C reads like this: (endpoint: mean tumor weight, dose: 37.5 mg/kg/injection, schedule: Q01DX011 (ip), vehicle: saline, higher = larger tumour) 96 % of control; (endpoint: mean tumor weight, dose: 300.0 mg/kg/injection, schedule: Q01DX011 (ip), vehicle: saline, higher = larger tumour) 26 % of control.
